Reference: patent US11944685B2, “Preparation method and application of novel injection abiraterone derivative” (TIANJIN HAIRUNJIAHE INNOVATIVE PHARMACEUTICAL RESEARCH …, priority 2021, dated 2024)
Blank lines part the entries; values can stand above or below the compound they belong to.

What was measured:
[1] = test system: human prostate cancer cells (DU145); settings: 2.5-160 μM, incubation 48 hours, CCK8; compared with Abiraterone AA
Protocol: (§1) Cell survival rate tested by CCK8 method: after the solution was pipetted from the wells, each well was added with 10 μl of CCK8 reagent and 100 μl of serum-free medium for further culture for 4 hours. An absorbance value of each well at 450 nm was determined using a microplate reader.

[2] = test system: human prostate cancer cells (LNCaP); settings: 2.5-160 μM, incubation 48 hours, CCK8; compared with Abiraterone AA
Protocol: as §1

[3] = Organ indexes and body weights of prostate cancer LNCaP tumor-bearing mice; type: in vivo, nude mice; settings: 28 days; for body weights of the mice: vs normal group
Protocol: A normal group (Normal) was not given any treatment; a model group (NS) received a daily injection of an equal volume of physiological saline; an AA group (150 mg/kg/d p.o.) was administrated intragastrically, once daily; and an AA-DTPA group (35 mg/kg/w i.v.) and an AA-DTPA group (52.5 mg/kg/w i.v.) were administrated from tail veins once weekly.
Diameters of the xenograft tumors of the nude mice were measured with vernier calipers, and the anti-tumor effect of the Abiraterone was dynamically observed.
Two days following the last administration, the mice were sacrificed, and hearts, livers, spleens, lungs, kidneys, and testes were dissected off and weighed, and organ indexes [organ index=organ weight/(body weight−tumor weight), unit: mg/g] were calculated.

[4] = Toxicity study: blood routine, blood biochemistry and tissue pathology of healthy ICR male mice; type: in vivo; settings: 28 days
Protocol: The influence of the polyaminopolycarboxylic acid modified Abiraterone derivative AA-DTPA prepared in Example 5 on blood routine, blood biochemistry and pathological tissues of ICR healthy male mice following administration for 28 days includes the following steps:
20 ICR mice were selected, and were divided into 4 groups (NS group, positive control group AA 150 mg/kg/d p.o., and experimental groups AA-DTPA 35 mg/kg/w and 52.5 mg/kg/w i.v.), each of which had 5 mice.
The mice were administrated intragastrically once daily, and administrated intravenously, […], and blood was sampled for submission following the treatment for 28 days; all mice were sacrificed by cervical dislocation, hearts, livers, spleens, lungs, kidneys, and testes were dissected and collected, and fixed with 10% formaldehyde; and after being embedded by paraffin, the organs were sectioned, and histopathological examination was performed after HE staining (see FIG. 13 for results from blood routine experiments, FIG. 14 for results from blood biochemistry experiments, and FIG. 15 for results from histopathological experiments).

[5] = Pharmacokinetic study in rats (plasma, LC-MS/MS); type: in vivo, SD rats
Protocol: Pharmacokinetics experiments of the polyaminopolycarboxylic acid modified abiraterone derivative AA-DTPA prepared in Example 2 in rats includes the following steps:
A total of eight healthy male SD rats weighing 220+/−20 g were randomly divided into 2 groups, with 4 rats in each group; one group was administered with AA-DTPA from tail veins of the rats at a dose of 8 mg/kg in a volume of 0.2 ml/200 g rat; the other group was administrated intragastrically with AA at a dose of 30 mg/kg in a volume of 0.2 ml/200 g rat; blood samples were collected at time points of 5, 15, and 30 minutes, as well as 1, 2, 4, 6, 12, and 24 hours before and after administration for both groups; and at each time point, 0.5 ml of blood was sampled from canthi, and was placed in a heparinized plastic centrifuge tube, centrifugation was performed at 3000 r/min for 10 minutes, and plasma was separated therefrom.
50 μl of rat plasma samples+5 μl of methanol ice (1:1, v/v)+150 μl of precipitant were taken, and fully whirled and shaken for 3 minutes, a mixture was then centrifuged at 4° and 12000 r/min for 10 minutes, and a supernatant was pipetted, and analyzed with sample injection by LC-MS/MS (liquid chromatography-tandem mass spectrometry).

[6] = test system: human prostate cancer LNCaP derived xenograft tumors; assay: Inhibition of growth of human prostate cancer LNCaP derived xenograft tumors of nude mice; settings: for tumor inhibition effect compared with the AA group: 28 days; for tumor growth: treatment for 28 days
[7] = healthy male ICR mice, 35 and 52.5 mg/kg/w i.v. vs AA 150 mg/kg/d p.o.
[8] = healthy male ICR mice, 35 and 52.5 mg/kg/w i.v.
[9] = intravenous injection (tail vein) 8 mg/kg
[10] = intragastric administration 30 mg/kg

SMILES: CC12CCC(OC(=O)CN(CCN(CCN(CCN(CC(=O)O)CC(=O)O)CC(=O)O)CC(=O)O)CC(=O)O)CC1=CCC1C2CCC2(C)C(c3cccnc3)=CCC12 (stereo not drawn) [AA-TTHA, triethylenetetramine hexaacetic acid modified Abiraterone derivative]
in vitro anti-tumor effect (DU145), cell survival rate [1]: superior to the in vitro anti-tumor effect of Abiraterone AA | in vitro anti-tumor effect (LNCaP), cell survival rate [2]: superior to the in vitro anti-tumor effect of Abiraterone AA

SMILES: CC12CCC(OC(=O)CN(CCN(CCN(CC(=O)O)CC(=O)O)CC(=O)O)CC(=O)O)CC1=CCC1C2CCC2(C)C(c3cccnc3)=CCC12 (stereo not drawn) [AA-DTPA, diethylenetriaminepentaacetic acid modified Abiraterone derivative]
in vitro anti-tumor effect (DU145), cell survival rate [1]: superior to the in vitro anti-tumor effect of Abiraterone AA | in vitro anti-tumor effect (LNCaP), cell survival rate [2]: superior to the in vitro anti-tumor effect of Abiraterone AA | body weights of the mice ([3]; 35 mg/kg i.v. weekly): equivalent to those of the mice in the normal group | body weights of the mice ([3]; 52.5 mg/kg i.v. weekly): equivalent to those of the mice in the normal group | indexes of hearts, livers, lungs, kidneys and testes vs model group ([3]; AA-DTPA treatment group (35 and 52.5 mg/kg/w i.v.)): No significant difference | organ toxicity compared with AA under the treatment dose ([3]; LNCaP tumor-bearing mice): lower than that of the AA | histopathology of lungs ([4]; 52.5 mg/kg/w i.v., HE staining): mild pathological changes | organ toxicity (histopathology) ([4]; 35 and 52.5 mg/kg/w i.v.): no obvious organ toxicity | histopathology of hearts, spleens, kidneys and testes ([4]; 35 and 52.5 mg/kg/w i.v., HE staining): no abnormal changes | effect on alanine aminotransferase and aspartate aminotransferase compared with AA group [4, 7]: less effect | effect on number of lymphocytes and monocytes compared with AA group [4, 7]: less effect | effect on blood biochemistry [4, 8]: less effect | effect on blood routine [4, 8]: less effect | toxicity compared with AA ([4]; healthy male ICR mice): less toxic than that of the AA | average clearance rate [5, 9]: 8.55 mL/min/kg | half-life period [5, 9]: 0.26 h | plasma concentration-time profile [5, 9]: double exponential decay | tumor inhibition effect compared with the AA group ([6]; 35 mg/kg/w i.v. vs AA 150 mg/kg/d p.o.): better tumor inhibition effects | tumor growth ([6]; 35 mg/kg/w i.v.): significantly inhibited | tumor inhibition effect compared with the AA group ([6]; 52.5 mg/kg/w i.v. vs AA 150 mg/kg/d p.o.): better tumor inhibition effects | tumor growth ([6]; 52.5 mg/kg/w i.v.): significantly inhibited

absorption in vivo [5, 10]: absorbed slowly | peak value of AA concentration in blood plasma [5, 10]: 15.28 ± 1.24 ng/mL | time to peak plasma concentration [5, 10]: 0.5 h | half-life ([5]; male, SD, rat, plasma, po, intragastric administration 30 mg/kg, read-out: half-life period (converted)): 8.46 h
SMILES: C[C@]12CC[C@H](O)CC1=CC[C@@H]1[C@@H]2CC[C@]2(C)C(c3cccnc3)=CC[C@@H]12 [AA, Abiraterone]
heart indexes ([3]; 150 mg/kg/d p.o.): slight decline | indexes of livers, lungs and kidneys vs model group ([3]; 150 mg/kg/d p.o.): no significant difference | testis indexes ([3]; 150 mg/kg/d p.o., compared with normal group and model group): testicular atrophy and a sharp decrease in testis indexes | histopathology of hearts, spleens, kidneys and testes ([4]; 150 mg/kg/d p.o., HE staining): no abnormal changes | histopathology of livers ([4]; 150 mg/kg/d p.o., HE staining): mild pathological changes | histopathology of lungs ([4]; 150 mg/kg/d p.o., HE staining): mild pathological changes
